The values that follow come from patent publication US20240174648A1, “Small Molecule Compound” (Technoderma Medicines Pte Ltd, priority 2019, published 2024).

One assay has as its target Tyk2 (Homo sapiens, UniProt P29597). The assay can be described thus: JAK kinase inhibition assay (EZ Reader, peptide substrate phosphorylation) - Tyk2. It counts as biochemical. The note with it: Tyk2 kinase 1 nM; 8 concentration points, max 10 μM. The source says: (§1) Assay for Identifying Inhibitory Effects of Compounds on JAK Kinases
(§2) Janus kinases (JAK), including JAK1, JAK2, JAK3 and Tyk2, transduce a cytokine-mediated signal through a JAK-STAT pathway. The kinases are 120-140 kDa in size and have 7 determined homology regions: JH1 to JH7. JH1 is an important region for enzymatic activity and has typical characteristics of tyrosine kinases. Phosphorylation of tyrosine leads to a change in the conformation of JAK protein, thereby promoting binding of substrate. The JAK-STAT system includes three main parts: receptors penetrating a cell membrane, Janus kinases binding to the receptors, and signal transducers and activators of transcription (STAT) for transmitting signals to a nucleus and DNA. When cytokines bind to receptors, JAK phosphorylates the receptors and attracts STAT proteins. The STAT proteins are also phosphorylated and combined with one another to form dimers. The dimers enter the nucleus and bind to DNA, thereby leading to gene transcription.
(§3) EZ Reader from PerkinElmer can be used to detect the phosphorylation of polypeptide substrates catalyzed by kinases. The device is based on microfluidic techniques, and can directly detect fluorescently labeled substrates and products. The separation step is achieved by controlling the pressure and electric field strength in the microfluidic chip. In kinase assays, a product conversion ratio is usually controlled to be 20-30%. A biological test is used to identify inhibitory effects of compounds on JAKs.
(§4) Compound powder was dissolved in DMSO, sealed and stored in a freezer under −20° C. The in-house compound Ref1 was used as a positive control for JAK1, JAK2 and Tyk2 tests, and Ref2 was used as a positive control for JAK3 tests.
(§5) S2.8. Assay buffer: 20 mM HEPES buffer, pH 7.4, 10 mM magnesium chloride, 0.01% bovine serum albumin BSA, 0.0005% Tween-20 and 1 mM dithiothreitol solution.
(§6) S2.9. Stop buffer: 180 mM HEPES buffer, 20 mM ethylenediaminetetraacetic acid and 0.2% coating reagent 3.
(§7) S2.10. Separation buffer: 100 mM HEPES buffer, 10 mM ethylenediaminetetraacetic acid, 0.0005% Tween 20, 0.1% coating reagent 3 and 1% dimethyl sulfoxide.
(§8) The compound was dissolved in dimethyl sulfoxide and diluted to 10 mM concentration, a certain volume of solution was taken and diluted to 0.6 mM concentration, 10 μL of the 0.6 mM dilution was added to a 384-well microplate, and then was diluted 3-fold with a total of 8 concentration points.
(§9) Positive control (HPE1): Ref1, final concentration: 10 μM […]
(§10) Negative control (ZPE): DMSO, final content: 1.6%
(§11) Compounds: maximum final concentration: 10 μM; 3-fold dilution, 8 concentration points and 2 duplicates.
(§12) S4.1. 250 nL of the compound was added to each well of the assay microplate by using ECHO, and centrifuged at 1000 rpm for 1 minute.
(§13) S4.2. 5 μL of the assay buffer was added and agitated for a few seconds to fully dissolve the compound.
(§14) S4.3. 5 μL of 3× substrate solution and 5 μL of 3× kinase solution were added and centrifuged at 800 rpm for 1 minute.
(§15) S4.4. Final concentrations of JAK1, JAK2, JAK3 and Tyk2 kinases in the reaction system were 20 nM, 1 nM, 1 nM and 1 nM respectively.
(§16) S4.5. Incubation at room temperature, where kinases had time differences, and different batches of kinases had time differences.
(§17) S4.6. When 20%-30% of the reaction completed, 15 μL of stop buffer was added to stop the reaction, and centrifuged at 1000 rpm for 2 minutes.
(§18) S4.7. The microplates were placed on EZ Reader for reading.
(§19) S4.8. Readings on EZ Reader were calculated by using a peak height, where product conversion ratio (%)=product/(product+substrate)*100.
(§20) 5. Data Processing: IC50 calculation
(§21) A graphing software Xlfit was used to form a concentration curve of the test compound, and an IC50 value was calculated.
(§22) “A” means “≥10 μM”; “B” means “≥1 μM and <10 μM”; “C” means “≥0.1 μM and <1 μM”; and “D” means “<0.1 μM”.

The next assay concerns the target JAK1 (Homo sapiens, UniProt P23458). The assay can be described thus: JAK kinase inhibition assay (EZ Reader, peptide substrate phosphorylation) - JAK1. The note with it: JAK1 kinase 20 nM; 8 concentration points, max 10 μM. It counts as biochemical.
Description: as §1, §2, §3, §4, §5, §6, §7, §8, §9, §10, §11, §12, §13, §14, §15, §16, §17, §18, §19, §20, §21, §22

Chain of JAK1 (P23458 whole entry): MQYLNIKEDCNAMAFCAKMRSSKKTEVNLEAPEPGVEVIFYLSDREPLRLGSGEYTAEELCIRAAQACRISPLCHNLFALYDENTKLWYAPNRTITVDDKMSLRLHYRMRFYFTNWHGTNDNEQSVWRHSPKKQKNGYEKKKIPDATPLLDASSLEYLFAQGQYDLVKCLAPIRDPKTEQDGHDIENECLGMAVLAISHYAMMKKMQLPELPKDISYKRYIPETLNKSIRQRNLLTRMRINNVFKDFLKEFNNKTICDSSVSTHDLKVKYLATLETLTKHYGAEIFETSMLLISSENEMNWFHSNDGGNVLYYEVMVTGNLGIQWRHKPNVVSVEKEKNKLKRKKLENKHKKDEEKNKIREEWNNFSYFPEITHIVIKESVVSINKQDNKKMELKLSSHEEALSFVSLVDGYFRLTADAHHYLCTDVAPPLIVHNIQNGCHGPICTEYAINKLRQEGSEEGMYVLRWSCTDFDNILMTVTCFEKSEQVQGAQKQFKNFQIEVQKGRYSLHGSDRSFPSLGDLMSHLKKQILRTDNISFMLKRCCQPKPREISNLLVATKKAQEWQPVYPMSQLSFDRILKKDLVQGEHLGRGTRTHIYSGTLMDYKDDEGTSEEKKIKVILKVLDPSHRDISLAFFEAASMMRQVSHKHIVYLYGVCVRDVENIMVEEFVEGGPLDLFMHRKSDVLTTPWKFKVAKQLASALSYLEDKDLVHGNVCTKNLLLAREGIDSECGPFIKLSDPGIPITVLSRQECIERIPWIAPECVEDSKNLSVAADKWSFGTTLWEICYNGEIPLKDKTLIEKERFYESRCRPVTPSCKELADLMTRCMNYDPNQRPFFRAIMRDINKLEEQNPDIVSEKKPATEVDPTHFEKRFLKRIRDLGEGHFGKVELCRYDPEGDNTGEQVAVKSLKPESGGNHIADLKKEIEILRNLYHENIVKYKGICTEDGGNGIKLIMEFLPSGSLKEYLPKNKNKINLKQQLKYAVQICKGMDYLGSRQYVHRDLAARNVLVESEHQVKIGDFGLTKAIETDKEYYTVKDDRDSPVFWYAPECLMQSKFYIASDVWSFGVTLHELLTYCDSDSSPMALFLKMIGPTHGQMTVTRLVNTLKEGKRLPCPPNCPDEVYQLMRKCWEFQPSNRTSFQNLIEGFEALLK
Chain of Tyk2 (P29597 whole entry): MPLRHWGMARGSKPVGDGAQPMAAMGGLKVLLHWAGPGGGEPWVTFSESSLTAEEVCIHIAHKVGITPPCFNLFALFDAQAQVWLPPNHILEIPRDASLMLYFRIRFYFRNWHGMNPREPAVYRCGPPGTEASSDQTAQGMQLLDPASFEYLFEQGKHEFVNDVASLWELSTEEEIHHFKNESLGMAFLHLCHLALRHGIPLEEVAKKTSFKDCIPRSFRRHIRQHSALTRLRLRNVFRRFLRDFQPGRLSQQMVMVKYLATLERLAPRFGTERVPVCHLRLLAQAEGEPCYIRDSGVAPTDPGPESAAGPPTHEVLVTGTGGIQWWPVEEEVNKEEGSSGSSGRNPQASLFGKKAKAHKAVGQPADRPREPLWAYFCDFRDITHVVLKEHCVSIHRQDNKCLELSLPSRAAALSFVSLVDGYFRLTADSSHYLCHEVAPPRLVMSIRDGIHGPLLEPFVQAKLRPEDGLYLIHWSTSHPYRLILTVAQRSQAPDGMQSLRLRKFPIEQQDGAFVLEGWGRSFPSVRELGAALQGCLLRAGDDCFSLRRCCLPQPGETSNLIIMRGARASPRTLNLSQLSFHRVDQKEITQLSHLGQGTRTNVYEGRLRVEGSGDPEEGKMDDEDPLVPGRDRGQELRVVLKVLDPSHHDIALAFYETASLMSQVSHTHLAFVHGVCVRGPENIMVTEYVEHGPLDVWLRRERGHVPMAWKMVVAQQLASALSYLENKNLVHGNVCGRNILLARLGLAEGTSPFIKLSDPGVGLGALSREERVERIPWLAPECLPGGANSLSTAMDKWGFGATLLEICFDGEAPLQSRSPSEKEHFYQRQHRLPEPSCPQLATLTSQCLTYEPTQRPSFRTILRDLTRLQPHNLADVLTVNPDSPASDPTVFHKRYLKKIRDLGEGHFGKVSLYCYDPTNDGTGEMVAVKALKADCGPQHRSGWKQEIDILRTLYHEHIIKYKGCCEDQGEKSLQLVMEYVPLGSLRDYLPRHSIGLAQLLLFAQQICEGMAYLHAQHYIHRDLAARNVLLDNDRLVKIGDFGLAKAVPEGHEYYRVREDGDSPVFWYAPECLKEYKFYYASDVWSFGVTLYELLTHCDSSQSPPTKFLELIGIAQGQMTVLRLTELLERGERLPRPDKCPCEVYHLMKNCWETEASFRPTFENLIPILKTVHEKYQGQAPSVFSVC

`CCCS(=O)(=O)Nc1ccc(-c2ccnc(Nc3cnn(C)c3)n2)cn1` [TDM-180901, N-(5-(2-((1-methyl-1H-pyrazol-4-yl)amino)pyrimidin-4-yl)pyridin-2-yl)propane-1-sulfonamide]: the IC50 was at least 10 µM at Tyk2 and 1 to 10 µM against JAK1.

In the case of `Cn1cc(Nc2nccc(-c3cnc(NC(=O)CC#N)nc3)n2)cn1` [TDM-180902, 2-cyano-N-(2-((1-methyl-1H-pyrazol-4-yl)amino)-[4,5′-bipyrimidin]-2′-yl)acetamide], the IC50 at Tyk2 and against JAK1 was 1 to 10 µM each time.

Take `Cn1cc(Nc2nccc(-c3ccc(NS(=O)(=O)CCCF)nc3)n2)cn1` [TDM-180903, 3-fluoro-N-(5-(2-((1-methyl-1H-pyrazol-4-yl)amino)pyrimidin-4-yl)pyridin-2-yl)propane-1-sulfonamide]: the IC50 at Tyk2 and at JAK1 was 1 to 10 µM throughout.

In the case of `Cn1cc(Nc2nccc(-c3cnc(NC(=O)C4CC4)nc3)n2)cn1` [TDM-180904, N-(2-((1-methyl-1H-pyrazol-4-yl)amino)-[4,5′-bipyrimidin]-2′-yl)cyclopropanecarboxamide], the IC50 against Tyk2 and against JAK1 was 1 to 10 µM throughout.

Turning to `Cn1cc(Nc2nccc(-c3cnc(NC(=O)CC(F)(F)F)cn3)n2)cn1` [TDM-180905, 3,3,3-trifluoro-N-(5-(2-((1-methyl-1H-pyrazol-4-yl)amino)pyrimidin-4-yl)pyrazin-2-yl)propanamide], the IC50 against Tyk2 is 1 to 10 µM; on JAK1 it was 0.1 to 1 µM.

For `Cc1cc(-c2ccnc(Nc3cnn(C)c3)n2)cnc1NC(=O)C1CC1(F)F` (centres unmarked) [TDM-180906, 2,2-difluoro-N-(3-methyl-5-(2-((1-methyl-1H-pyrazol-4-yl)amino)pyrimidin-4-yl)pyridin-2-yl)cyclopropane-1-carboxamide], the figures for the IC50 against Tyk2 and against JAK1 were 1 to 10 µM and 0.1 to 1 µM, respectively.

For the compound `Cc1cc(-c2ccnc(Nc3cnn(C)c3)n2)cnc1NC(=O)CC#N` [TDM-180907, 2-cyano-N-(3-methyl-5-(2-((1-methyl-1H-pyrazol-4-yl)amino)pyrimidin-4-yl)pyridin-2-yl)acetamide], the IC50 on Tyk2 and against JAK1 was 1 to 10 µM each time.

As to `Cc1cc(-c2ccnc(Nc3cnn(C)c3)n2)cnc1NC(=O)CC(F)(F)F` [TDM-180908, 3,3,3-trifluoro-N-(3-methyl-5-(2-((1-methyl-1H-pyrazol-4-yl)amino)pyrimidin-4-yl)pyridin-2-yl)propanamide], the IC50 was in the range of 1 to 10 µM at Tyk2 and 0.1 to 1 µM against JAK1.

Turning to `Cc1cc(-c2ccnc(Nc3cnn(C)c3)n2)cnc1NC(=O)C1CC1` [TDM-180910, N-(3-methyl-5-(2-((1-methyl-1H-pyrazol-4-yl)amino)pyrimidin-4-yl)pyridin-2-yl)cyclopropanemethane], the figures for the IC50 against Tyk2 and against JAK1 were at least 10 µM and 1 to 10 µM, respectively.

Consider `Cn1cc(Nc2nccc(-n3ccc4c(NC(=O)CC5CC5)cccc43)n2)cn1` [TDM-180911, 2-cyclopropyl-N-(1-(2-((1-methyl-1H-pyrazol-4-yl)amino)pyrimidin-4-yl)-1H-indol-4-yl)acetamide], for which the figures for the IC50 against Tyk2 and at JAK1 were 1 to 10 µM and 0.1 to 1 µM, respectively.

On to `Cn1cc(Nc2nccc(-c3cnc(NS(=O)(=O)Cc4ccccc4)c(F)c3)n2)cn1` [TDM-180913, N-(3-fluoro-5-(2-((1-methyl-1H-pyrazol-4-yl)amino)pyrimidin-4-yl)pyridin-2-yl)-1-phenylmethanesulfonamide], for which the IC50 on Tyk2 and against JAK1 was at least 10 µM each time.

For the compound `Cn1cc(Nc2nccc(-c3cnc(NC(=O)C4CC4)cn3)n2)cn1` [TDM-180914, N-(5-(2-((1-methyl-1H-pyrazol-4-yl)amino)pyrimidin-4-yl)pyrazin-2-yl)cyclopropanemethane], the IC50 on Tyk2 and against JAK1 was 1 to 10 µM in each case.

On to `Cn1cc(Nc2nccc(-c3ccc(NC(=O)CC4CC4)c4[nH]ncc34)n2)cn1` [TDM-180917, 2-cyclopropyl-N-(4-(2-((1-methyl-1H-pyrazol-4-yl)amino)pyrimidin-4-yl)-1H-indazol-7-yl)acetamide], for which the IC50 against Tyk2 and at JAK1 was 0.1 to 1 µM each time.

As for `CCS(=O)(=O)Nc1ncc(-c2ccnc(Nc3cnn(C)c3)n2)cn1` [TDM-180919, N-(2-((1-methyl-1H-pyrazol-4-yl)amino)-[4,5′-bipyrimidin]-2′-yl)ethanesulfonamide], the IC50 on Tyk2 and on JAK1 was at least 10 µM throughout.

`Cn1cc(Nc2nccc(-c3ccc(NC(=O)CC4CC4)c4[nH]ccc34)n2)cn1` [TDM-180920]: the IC50 against Tyk2 and on JAK1 was 0.1 to 1 µM throughout.

`Cn1cc(Nc2nccc(-c3cnc(NS(=O)(=O)Cc4ccccc4)nc3)n2)cn1` [TDM-180921, N-(2-((1-methyl-1H-pyrazol-4-yl)amino)-[4,5′-bipyrimidin]-2′-yl)-1-phenylmethanesulfonamide]: the IC50 against Tyk2 and on JAK1 was at least 10 µM each time.

In the case of `Cn1cc(Nc2nccc(-c3ccc(NC(=O)CC#N)c4cc[nH]c34)n2)cn1` [TDM-180923], the IC50 against Tyk2 is at least 10 µM; on JAK1, 0.1 to 1 µM.

`Cn1cc(Nc2nccc(-c3ccc(NC(=O)CC(F)(F)F)c4cc[nH]c34)n2)cn1` [TDM-180924, 3,3,3-trifluoro-N-(7-(2-((1-methyl-1H-pyrazol-4-yl)amino)pyrimidin-4-yl)-1H-indol-4-yl)propanamide]: the IC50 against Tyk2 was in the range of 1 to 10 µM; against JAK1, 0.1 to 1 µM.

Take `Cn1cc(Nc2nccc(-c3ccc(NC(=O)C4CC4)c4cc[nH]c34)n2)cn1` [TDM-180926, N-(7-(2-((1-methyl-1H-pyrazol-4-yl)amino)pyrimidin-4-yl)-1H-indole-4-yl)cyclopropanecarboxamide]: the IC50 against Tyk2 and against JAK1 was at least 10 µM each time.

As to `Cn1cc(Nc2nccc(-c3ccc(NC(=O)C4CC4(F)F)c4cc[nH]c34)n2)cn1` (centres unmarked) [TDM-180929, 2,2-difluoro-N-(7-(2-((1-methyl-1H-pyrazol-4-yl)amino)pyrimidin-4-yl)-1H-indol-4-yl)cyclopropane-1-carboxamide], the IC50 is at least 10 µM at Tyk2 and 1 to 10 µM against JAK1.

As to `Cn1cc(Nc2nccc(-c3ccc(NC(=O)CC4CC4)c4cc[nH]c34)n2)cn1` [TDM-180933], the IC50 was at least 10 µM at Tyk2 and 1 to 10 µM against JAK1.

Regarding `Cn1cc(Nc2nccc(-c3ccc(NC(=O)[C@@H]4CC4(F)F)cc3)n2)cn1` [TDM-180934], the IC50 against Tyk2 and on JAK1 was below 0.1 µM each time.

Take `Cn1cc(Nc2nccc(-c3ccc(NC(=O)[C@@H]4CC4(F)F)nc3)n2)cn1` [TDM-180935, (S)-2,2-difluoro-N-(5-(2-((1-methyl-1H-pyrazol-4-yl)amino)pyrimidin-4-yl)pyridin-2-yl)cyclopropane-1-carboxamide]: the IC50 against Tyk2 and against JAK1 was below 0.1 µM each time.

For the compound `Cn1cc(Nc2nccc(-c3ccc(NC(=O)[C@H]4CC4(F)F)cc3)n2)cn1` [TDM-180936, (R)-2,2-difluoro-N-(4-(2-((1-methyl-1H-pyrazol-4-yl)amino)pyrimidin-4-yl)phenyl)cyclopropane-1-carboxamide], the IC50 is 0.1 to 1 µM at Tyk2 and below 0.1 µM on JAK1.

`Cn1cc(Nc2nccc(-c3ccc(NC(=O)[C@H]4CC4(F)F)nc3)n2)cn1` [TDM-180939, (R)-2,2-difluoro-N-(5-(2-((1-methyl-1H-pyrazol-4-yl)amino)pyrimidin-4-yl)pyridin-2-yl)cyclopropane-1-carboxamide]: the values for the IC50 at Tyk2 and on JAK1 were 0.1 to 1 µM and below 0.1 µM, respectively.

The IC50 is the concentration that gives 50% inhibition. Read a high IC50 as weaker potency.
